Experiments:
[1] = molecular target: T1, RARβ (Homo sapiens, UniProt P10826); test: chimeric receptor transactivation assay, RARβ; type: cell-based; conditions: for EC50: chimeric receptor transactivation, read-out: RAR Trans. EC50 β; for Emax: percentage compared to the standard compound, read-out: RAR Trans. efficacy (number in parentheses) β
T1 sequence (P10826 183-417 limits assumed): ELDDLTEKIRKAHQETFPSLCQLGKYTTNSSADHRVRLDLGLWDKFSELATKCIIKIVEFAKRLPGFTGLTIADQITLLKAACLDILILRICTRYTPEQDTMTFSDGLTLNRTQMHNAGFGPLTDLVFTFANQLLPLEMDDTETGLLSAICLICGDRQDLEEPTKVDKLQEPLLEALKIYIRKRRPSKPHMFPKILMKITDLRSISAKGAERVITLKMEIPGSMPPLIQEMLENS
From the text: (§1) Specifically, one such assay is a chimeric receptor transactivation assay which tests for agonist-like activity in the R RAPE and RAR7 receptor subtypes, and which is based on work published by Feigner, P. L. and Holm, M (1989) Focus, 112 is described in detail in U.S. Pat. No. 5,455,265. The specification of U.S. Pat. No. 5,455,265 is hereby expressly incorporated by reference. A holoreceptor transactivation assay and a ligand binding assay which measure the antagonist/agonist like activity of the compounds of the invention, or their ability to bind to the several retinoid receptor subtypes, respectively, are described in published PCT Application No. WO WO93/11755 (particularly on pages 30-33 and 37-41) published on Jun. 24, 1993, the specification of which is also incorporated herein by reference. A detailed experimental procedure for holoreceptor transactivations has been described by Heyman et al. Cell 68, 397-406, (1992); Allegretto et al. J. Biol. Chem. 268, 26625-26633, and Mangelsdorf et al. The Retinoids: Biology, Chemistry and Medicine, pp 319-349, Raven Press Ltd., New York, which are expressly incorporated herein by reference. The results obtained in this assay are expressed in EC50 numbers, as they are also in the chimeric receptor transactivation assay. The results of the ligand binding assay are expressed in Ki numbers. (See Cheng et al. Biochemical Pharmacology Vol. 22 pp 3099-3108, expressly incorporated herein by reference.)
(§2) Efficacy in a transactivation assay is expressed as a percentage of the maximum potency attained by the compound compared to a standard which, in this case, is the compound named (2E,4E,1′S,2′S)-3-methyl-5-[2′-methyl-2′-(5,5,8,8-tetramethyl-5,6,7,8-tetrahydro-naphthalen-2-yl)-cyclopropyl]-penta-2,4-dienoic acid. This standard compound is described in U.S. Pat. No. 6,114,533.
(§3) The specification of this application for patent is organized in several sections in accordance with structural Formulas A through F each of which discloses a group of preferred compounds within the scope of the invention. Tables that disclose the activity of certain exemplary compounds of the invention in the above-described RXR receptor transactivation and binding assays are found in the corresponding sections. […] The transactivation data pertaining to the activation of RXR receptors were obtained in the holoreceptor assay.
(§4) Generally speaking, in the tables disclosing the results of transactivation and binding assays the numbers in parentheses indicate efficacy as a percentage compared to the standard compound, (2E,4E,1′S,2′S)-3-methyl-5-[2′-methyl-2′-(5,5,8,8-tetramethyl-5,6,7,8-tetrahydro-naphthalen-2-yl)cyclopropyl]-penta-2,4-dienoic acid and the other numbers indicate the measured EC50 and K; in nanomolar concentration.

[2] = molecular target: T2, RXRγ (UniProt P28705); test: holoreceptor transactivation assay, RXRγ; type: cell-based; conditions: for EC50: holoreceptor transactivation, read-out: RXR Trans. EC50 γ; for RXR Trans. efficacy (number in parentheses) γ: percentage compared to the standard compound
T2 sequence (P28705 1-463): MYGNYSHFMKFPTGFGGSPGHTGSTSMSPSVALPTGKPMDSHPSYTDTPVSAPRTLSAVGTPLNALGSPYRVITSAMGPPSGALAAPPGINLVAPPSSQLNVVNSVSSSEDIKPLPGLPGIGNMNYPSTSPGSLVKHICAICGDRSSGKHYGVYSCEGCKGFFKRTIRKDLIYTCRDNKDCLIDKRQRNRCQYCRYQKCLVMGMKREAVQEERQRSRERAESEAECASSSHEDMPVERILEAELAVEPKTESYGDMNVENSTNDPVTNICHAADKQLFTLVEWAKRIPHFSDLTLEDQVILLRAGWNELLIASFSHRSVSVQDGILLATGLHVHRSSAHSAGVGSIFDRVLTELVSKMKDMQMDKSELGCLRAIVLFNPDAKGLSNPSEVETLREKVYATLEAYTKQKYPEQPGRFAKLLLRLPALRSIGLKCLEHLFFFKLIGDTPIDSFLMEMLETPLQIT
From the text: as §1, §2, §3, §4

[3] = molecular target: T3, RARβ (Homo sapiens, UniProt P10826); test: ligand binding assay, RARβ; conditions: for Ki: read-out: RAR Bind. Ki β
T3 sequence (P10826 1-455): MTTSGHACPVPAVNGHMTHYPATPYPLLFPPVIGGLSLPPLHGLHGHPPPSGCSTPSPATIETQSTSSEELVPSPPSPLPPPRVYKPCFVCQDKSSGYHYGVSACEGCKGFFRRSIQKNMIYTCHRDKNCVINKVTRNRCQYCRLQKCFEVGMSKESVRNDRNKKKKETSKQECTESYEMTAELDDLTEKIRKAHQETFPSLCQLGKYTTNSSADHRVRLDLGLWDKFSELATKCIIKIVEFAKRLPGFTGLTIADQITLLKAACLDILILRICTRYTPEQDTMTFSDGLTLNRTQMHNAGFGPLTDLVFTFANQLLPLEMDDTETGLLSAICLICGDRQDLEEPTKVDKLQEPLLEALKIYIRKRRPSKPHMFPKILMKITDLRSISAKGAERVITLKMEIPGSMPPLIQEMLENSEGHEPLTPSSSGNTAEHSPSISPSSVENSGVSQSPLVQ
From the text: as §1, §4

[4] = molecular target: T4, RARγ (Homo sapiens, UniProt P13631); test: ligand binding assay, RARγ; conditions: for Ki: read-out: RAR Bind. Ki γ
T4 sequence (P13631 1-454): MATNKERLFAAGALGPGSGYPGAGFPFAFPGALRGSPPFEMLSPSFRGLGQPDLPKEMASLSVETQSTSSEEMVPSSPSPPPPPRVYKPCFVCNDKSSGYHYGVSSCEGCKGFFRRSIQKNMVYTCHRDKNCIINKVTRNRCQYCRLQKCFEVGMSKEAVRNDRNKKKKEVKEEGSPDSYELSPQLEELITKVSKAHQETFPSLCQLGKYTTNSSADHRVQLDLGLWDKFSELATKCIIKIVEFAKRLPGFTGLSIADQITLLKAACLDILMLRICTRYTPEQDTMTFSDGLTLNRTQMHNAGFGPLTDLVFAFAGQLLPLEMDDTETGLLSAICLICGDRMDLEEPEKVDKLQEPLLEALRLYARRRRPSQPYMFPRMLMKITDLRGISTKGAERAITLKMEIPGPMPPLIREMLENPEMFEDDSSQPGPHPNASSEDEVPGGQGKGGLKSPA
From the text: as §1, §4

| Compound | EC50 [1] [nM] | Emax [1] [%] | EC50 [2] [nM] | RXR Trans. efficacy (number in parentheses) γ [2] [%] | Kd ([3]; Table 9 (Formula F), read-out: RAR β Kd) [nM] | Kd ([4]; Table 9 (Formula F), read-out: RAR γ Kd) [nM] | Ki [3] [nM] | Ki [4] [nM] |
| --- | --- | --- | --- | --- | --- | --- | --- | --- |
| CCOc1c(\C(CC)=C(F)/C=C/C(C)=C/C(=O)O)cc2c(c1Cl)C(C)(C)CC=C2C(C)C [Compound A-178, (2E,4E,6E)-7-(4-Chloro-3-ethoxy-8-isopropyl-5,5-dimethyl-5,6-dihydronaphthalen-2-yl)-6-fluoro-3-methyl-nona-2,4,6-trienoic acid] | 9 | 26 | 0.3 | 46 | 79 | 449 |  |  |
| CC/C(=C(F)/C=C/C(C)=C/C(=O)O)c1cc2c(cc1OC)OC(C)(C)C=C2C [Compound 129, 6-Fluoro-7-(7-methoxy-2,2,4-trimethyl-2H-chromen-6-yl)-3-methyl-nona-2E,4E,6E-trienoic acid] | 563 | 24 | 53 | 108 |  |  | 490 | 4700 |
| CCOc1cc2c(cc1\C(=C/C=C/C(C)=C/C(=O)O)CC)C(C)=CC(C)(C)O2 [Compound 46, 7-(7-Ethoxy-2,2,4-trimethyl-2H-chromen-6-yl)-3-methyl-nona-2E,4E,6Z-trienoic acid] | 305 | 6 | > 1000 |  |  |  | 614 | 3400 |
| CCOc1cc2c(cc1\C(=C/C=C/C(C)=C/C(=O)O)CC)C(C(C)(C)C)=CCC2(C)C [Compound A-18, 7-(8-tert-butyl-3-ethyoxy-5,5-dimethyl-5,6-dihydronaphthalen-2-yl)-3-methyl-nona-2E,4E,6Z-trienoic acid] | 15 | 7 | 2.7 | 11 |  |  | 137 | 537 |
| CC/C(=C(F)/C=C/C(C)=C/C(=O)O)c1cc2c(c(Cl)c1OC)OC(C)(C)C=C2C(C)C [Compound 171, 7-(8-Chloro-4-isopropyl-7-methoxy-2,2-dimethyl-2H-chromen-6-yl)-6-fluoro-3-methyl-nona-2E,4E,6E-trienoic acid] | 49 | 13 | 0.04 | 95 |  |  | 381 | 4900 |
| COc1cc2c(cc1\C(C)=C(F)/C=C/C(C)=C/C(=O)O)C(C(C)C)=CC(C)(C)O2 [Compound 121, (2E,4E,6E)-6-Fluoro-7-(4-isopropyl-7-methoxy-2,2-dimethyl-2H-chromen-6-yl)-3-methyl-octa-2,4,6-trienoic acid] | 46600 |  | 10 | 79 |  |  | 2100 | 8800 |
| CC(/C=C/C(F)=C(/C)c1cc2c(cc1OCC1CC1)C(C)(C)CC=C2C(C)C)=C\C(=O)O [Compound A-81, (2E,4E,6E)-6-Fluoro-3-(4-dimethyl-6-(cyclopropyl)methoxy-1-isopropyl-3,4-dihydronaphthalen-7-yl)-3-methyl-2,4.6-octa-trienoic acid] | 203 | 23 |  |  |  |  | 927 | 5600 |
| CCCOc1cc2c(cc1\C(C)=C(F)/C=C/C(C)=C/C(=O)O)C(c1ccccc1)=CC(C)(C)O2 [Compound 128, (2E,4E,6E)-7-(2,2-Dimethyl-4-phenyl-7-propoxy-2H-chromen-6-yl)-6-fluoro-3-methyl-octa-2,4,6-trienoic acid] | 90 | 22 |  |  |  |  | 388 | 759 |
| CCCOc1cc2c(cc1\C(C)=C(F)/C=C/C(C)=C/C(=O)O)C(C(C)(C)C)=CCC2(C)C [Compound A-84, (2E,4E,6E)-6-Fluoro-3-(4,$dimethyl-6-n-propoxy-1-tert-butyl-3,4-dihydronaphthalen-7-yl)-3-methyl-2,4,6-octatrienoic acid] | 56 | 8 |  |  |  |  | 620 | 274 |
| CCOc1cc2c(cc1\C(CC)=C(F)/C=C/C(C)=C/C(=O)O)C(C)=CC(C)(C)O2 [Compound 132, 7-(7-Ethoxy-2,2,4-trimethyl-2H-chromen-6-yl)-6-fluoro-3-methyl-nona-2E,4E,6E-trienoic acid] | 710 | 8 | > 1000 |  |  |  | 548 | 2400 |
| CCC1=CC(C)(C)Oc2cc(OC)c(\C(C)=C/C=C/C(C)=C/C(=O)O)cc21 [Compound 42, 7-(4-Ethyl-7-methoxy-2,2-dimethyl-2H-chromen-6-yl)-3-methyl-octa-2E,4E,6Z-trienoic acid] | 845 | 34 | 13 | 125 |  |  | 9900 | > 10000 |
| CCOc1cc2c(cc1\C(C)=C/C=C/C(C)=C/C(=O)O)C(CC)=CC(C)(C)O2 [Compound 45, 7-(7-Ethoxy-4-ethyl-2,2-dimethyl-2H-chromen-6-yl)-3-methyl-octa-2E,4E,6Z-trienoic acid] | > 1000 |  |  |  |  |  | 196 | 2300 |
| CCOc1cc2c(cc1\C(C)=C(F)/C=C/C(C)=C/C(=O)O)C(c1ccccc1)=CC(C)(C)O2 [Compound 127, (2E,4E,6E)-7-(7-Ethoxy-2,2-dimethyl-4-phenyl-2H-chromen-6-yl)-6-fluoro-3-methyl-octa-2,4,6-trienoic acid] | 227 | 17 |  |  |  |  | 1400 | 2600 |

— US6887896B1, “7-[(7-Alkoxy)-chrom-3-en-6-yl]-heptatrienoic acid and 7-[(3-alkoxy)-5,6-dihydronaphthalen-2-yl]-heptatrienoic acid derivatives having serum glucose reducing activity” (Allergan, Inc., priority 2003, dated 2005)
